These results are taken from PMC8179358, “An explicitly designed paratope of amyloid-β prevents neuronal apoptosis in vitro and hippocampal damage in rat brain” (Chemical Science, 2020).

The assay concerns hippocampal neurons, Aβ40-infused rats. In words: Cresyl violet staining of Nissl granules in hippocampal neurons. It counts as in vivo, Sprague-Dawley rats. The note with it: intra-hippocampal Aβ40, vs control and sham, P < 0.01, n = 6. On the procedure: The overproduction of Aβ damages hippocampal neurons and causes cognitive impairments in AD. […] Cresyl violet staining was performed for identification of Nissl granules in neurons to reveal hippocampal neurodegeneration in this experiment. […]
e. Histopathological experiments for sub-chronic toxicity
Histopathological analysis was carried out on the preserved liver and kidney tissues. The SP1 treated rats and control rats were sacrificed by decapitation after 42 days of treatment schedule. Organs were removed and fixed in 10% buffered neutral formalin for 48 h. The fixed organs were embedded in paraffin wax. Sections were cut by using a microtome with 5-micrometer thickness. Slides were stained with Haematoxylin and eosin (H &E staining) for histological examination. Slides were observed under the light microscope (Dewinter Smart, India)for histopathological changes, and images were taken at […]
The lyophilized Aβ40 peptide was dissolved in artificial cerebrospinal fluid (aCSF: 119mM NaCl, 26.2mm NaHCO3, 2.5mM KCl, 1mM NaH2PO4, 1.3mM MgCl2, 10mM glucose; pH 7.4) solution at a concentration of 1mg/ml for stock and incubated at 37°C for 72 h to induce aggregation. The solution finally kept at 4°C before using it. […]
respective concentrations of SP1were prepared from this stock solution. g. […]

Consider “Aβ40: commercially available Aβ40 peptide”, for which the “intensity of Nissl granules, Aβ40 alone” value is listed as “significant (P < 0.01) decrease in the intensity of Nissl granules”.
